The subject of experiment [1] is MDA-MB-468. Kind of experiment: Antiproliferative activity against human MDA-MB-468 cells assessed as reduction in cell viability incubated for 48 hrs by MTT assay. The format is functional, cell-based. The settings on record: MDA-MB-468, 48 h. In general terms: Tetrazolium dyes change colour on reduction, which living cells bring about.
Experiment [2] concerns MDA-MB-231. Description: Antiproliferative activity against human MDA-MB-231 cells assessed as reduction in cell viability incubated for 48 hrs by MTT assay. To be noted: MDA-MB-231, 48 h. It is filed as functional, cell-based.
For experiment [3], the target named is Signal transducer and activator of transcription 3 (Homo sapiens, UniProt P40763). Description: Inhibition of STAT3 activation in human MDA-MB-231 cells assessed as reduction in STAT3 phosphorylation at Tyr705 residue at 1 uM measured after 24 hrs by Western blot analysis relative to control. It is filed as cell-based. On the technique in general: Immunoblotting shows a protein as a band on a membrane.
Chain of Signal transducer and activator of transcription 3 (P40763 whole entry): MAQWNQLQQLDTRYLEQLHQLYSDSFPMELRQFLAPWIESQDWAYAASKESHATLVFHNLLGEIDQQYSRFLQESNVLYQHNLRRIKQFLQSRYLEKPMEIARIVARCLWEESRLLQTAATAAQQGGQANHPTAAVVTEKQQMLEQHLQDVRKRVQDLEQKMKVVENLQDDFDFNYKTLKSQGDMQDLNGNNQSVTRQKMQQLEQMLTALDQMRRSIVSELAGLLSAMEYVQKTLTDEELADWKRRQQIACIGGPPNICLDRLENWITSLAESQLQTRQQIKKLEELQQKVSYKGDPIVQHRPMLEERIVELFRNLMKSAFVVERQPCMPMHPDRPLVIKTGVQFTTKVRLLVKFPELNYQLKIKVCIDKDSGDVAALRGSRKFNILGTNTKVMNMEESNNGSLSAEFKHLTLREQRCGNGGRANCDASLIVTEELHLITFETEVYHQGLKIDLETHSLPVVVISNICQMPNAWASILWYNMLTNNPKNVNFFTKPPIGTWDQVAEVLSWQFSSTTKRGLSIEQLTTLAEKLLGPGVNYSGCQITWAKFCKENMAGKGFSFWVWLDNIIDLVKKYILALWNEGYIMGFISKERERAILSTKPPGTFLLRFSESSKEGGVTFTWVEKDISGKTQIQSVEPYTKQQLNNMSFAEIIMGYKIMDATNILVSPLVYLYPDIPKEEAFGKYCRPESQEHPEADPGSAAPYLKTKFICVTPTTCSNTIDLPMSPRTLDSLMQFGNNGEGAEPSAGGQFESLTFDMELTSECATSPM

One may read the IC50 as the concentration that gives 50% inhibition.

Activity calls are given as the source filed them. The rule behind the calls is not given here.

On to `CCN(CC)CCN1CCc2c(oc3c2C(=O)C(=O)c2ccccc2-3)C1=O`, for which the IC50 in experiment [1] was 1.31 µM; in experiment [2], 0.61 µM. The inhibition entry in experiment [3] was “Active”.
`COC(=O)[C@H](C)N1CCc2c(oc3c2C(=O)C(=O)c2ccccc2-3)C1=O`: the IC50 was found to be 1.21 µM in experiment [1] and 0.68 µM in experiment [2].
For the molecule `O=C1C(=O)c2c(oc3c2CCN(C2CCC(N4CCOCC4)CC2)C3=O)-c2ccccc21` (configuration not stated), the IC50 in experiment [1] came out at 1.29 µM; in experiment [2], 1.23 µM.
`O=C1C(=O)c2c(oc3c2CCN(CCC(=O)N2CCCCC2)C3=O)-c2ccccc21`: the IC50 was determined as 2.5 µM in experiment [1] and 3.69 µM in experiment [2].
With `C[C@@H]1CN(CCCN2CCc3c(oc4c3C(=O)C(=O)c3ccccc3-4)C2=O)CCO1`, the IC50 stood at 1.58 µM in experiment [1] and 0.68 µM in experiment [2].
On to `C[C@H]1CN(CCCN2CCc3c(oc4c3C(=O)C(=O)c3ccccc3-4)C2=O)CCO1`, for which the IC50 in experiment [1] was determined as 1.72 µM; in experiment [2], 0.8 µM.
Taken in the same sequence, the figures for `CC(C)C[C@@H](CO)N1CCc2c(oc3c2C(=O)C(=O)c2ccccc2-3)C1=O` were 2.45 µM and 2.49 µM.
As for `O=C1C(=O)c2c(oc3c2CCN(CCO)C3=O)-c2ccccc21`, the IC50 in experiment [1] was found to be 1.43 µM; in experiment [2], 0.75 µM.
Taken in the same sequence, the figures for `CNC(=O)[C@H](C)N1CCc2c(oc3c2C(=O)C(=O)c2ccccc2-3)C1=O` were 1.38 µM and 2.62 µM.
The like results for `CNC(=O)[C@H](CC(C)C)N1CCc2c(oc3c2C(=O)C(=O)c2ccccc2-3)C1=O` were, in that order, 2.32 µM and 1.93 µM.
For the molecule `COC(=O)CC[C@@H](C(=O)OC)N1CCc2c(oc3c2C(=O)C(=O)c2ccccc2-3)C1=O`, the IC50 in experiment [1] is 2.37 µM; in experiment [2], 3.48 µM.
On to `O=C1C(=O)c2c(oc3c2CCN(CCN2CCOCC2)C3=O)-c2ccccc21`, for which the IC50 in experiment [1] was 1.96 µM; in experiment [2], 1.08 µM.
On to `CCN(CC)CCCN1CCc2c(oc3c2C(=O)C(=O)c2ccccc2-3)C1=O`, for which the IC50 in experiment [1] is 1.07 µM; in experiment [2] it was 0.65 µM. Further, the inhibition entry in experiment [3] is “Active”.
For `CN(C)CCn1ccc2c3c(oc2c1=O)-c1ccccc1C(=O)C3=O`, the IC50 in experiment [1] was determined as 1.21 µM; in experiment [2], 0.84 µM.
Consider `COC(=O)CCN1CCc2c(oc3c2C(=O)C(=O)c2ccccc2-3)C1=O`, for which the IC50 in experiment [1] amounted to 2.42 µM; in experiment [2], 2.53 µM.
Take `COC(=O)[C@H](CC(C)C)N1CCc2c(oc3c2C(=O)C(=O)c2ccccc2-3)C1=O`: the IC50 worked out at 2.66 µM in experiment [1] and 2.44 µM in experiment [2].
Turning to `O=C1C(=O)c2c(oc3c2CCN(CCC(=O)N2CCOCC2)C3=O)-c2ccccc21`, the results for the IC50 in experiment [1] and in experiment [2] were 2.24 µM and 3.05 µM, respectively.
Take `O=C1C(=O)c2c(oc3c2CCN(CCCN2CCOCC2)C3=O)-c2ccccc21`: the 50% inhibitory concentration (IC50) was determined as 1.24 µM in experiment [1] and 0.74 µM in experiment [2].
`O=C1C(=O)c2c(oc3c2CCN([C@H](CO)Cc2ccc(O)cc2)C3=O)-c2ccccc21`: the IC50 is 2.62 µM in experiment [1] and more than 4 µM in experiment [2].
For the molecule `O=C1C(=O)c2c(oc3c2CCN(CCCN2CC4(COC4)C2)C3=O)-c2ccccc21`, the values for the IC50 in experiment [1] and in experiment [2] were 1.46 µM and 0.92 µM, respectively.
Regarding `COC(=O)[C@H](Cc1ccccc1)N1CCc2c(oc3c2C(=O)C(=O)c2ccccc2-3)C1=O`, the IC50 was found to be 2.42 µM in experiment [1] and 0.93 µM in experiment [2].
In the case of `O=C1C(=O)c2c(oc3c2CCN([C@H](CO)Cc2ccccc2)C3=O)-c2ccccc21`, the results for the IC50 in experiment [1] and in experiment [2] were 2.42 µM and 0.93 µM, respectively.
The like results for `O=C1C(=O)c2c(oc3c2CCN(CCCn2ccnc2)C3=O)-c2ccccc21` were, in that order, 2.37 µM and 2.94 µM.
As to `O=C1C(=O)c2c(oc3c2CCN(CCCCO)C3=O)-c2ccccc21`, the results for the IC50 in experiment [1] and in experiment [2] were 3.07 µM and 2.29 µM, respectively.
Turning to `O=C1C(=O)c2c(oc3c(=O)n(CCN4CCCCC4)ccc23)-c2ccccc21`, the IC50 in experiment [1] turned out to be 0.63 µM; in experiment [2] it was 0.88 µM.
Consider `O=C1C(=O)c2c(oc3c2CCN(CCCN2CCCC2)C3=O)-c2ccccc21`, for which the concentration for half-maximal inhibition (IC50) in experiment [1] turned out to be 1.33 µM; in experiment [2], 0.91 µM.
Take `COC(=O)CN1CCc2c(oc3c2C(=O)C(=O)c2ccccc2-3)C1=O`: the IC50 in experiment [1] worked out at 1.55 µM; in experiment [2], 1.5 µM.
For the molecule `CNC(=O)[C@H](Cc1ccccc1)N1CCc2c(oc3c2C(=O)C(=O)c2ccccc2-3)C1=O`, the IC50 in experiment [1] stood at 2.55 µM; in experiment [2], 3.07 µM.
As to `CN(C)CCN1CCc2c(oc3c2C(=O)C(=O)c2ccccc2-3)C1=O`, the IC50 was 1.56 µM in experiment [1] and 0.54 µM in experiment [2]. In addition, in experiment [3], the inhibition result was “Active”.
In the case of `O=C1C(=O)c2c(oc3c2CCN([C@H](CO)CCCO)C3=O)-c2ccccc21`, the IC50 in experiment [1] and in experiment [2] was more than 4 µM throughout.
Regarding `C[C@@H](CO)N1CCc2c(oc3c2C(=O)C(=O)c2ccccc2-3)C1=O`, the IC50 in experiment [1] was found to be 1.31 µM; in experiment [2], 0.64 µM.
Taken in the same sequence, the figures for `CN1CCN(CCN2CCc3c(oc4c3C(=O)C(=O)c3ccccc3-4)C2=O)CC1` were 0.41 µM and 1.3 µM.
The like results for `C[C@@H](C(N)=O)N1CCc2c(oc3c2C(=O)C(=O)c2ccccc2-3)C1=O` were, in that order, 2.89 µM and 3.51 µM.
Taken in the same sequence, the figures for `O=CN1CCN(CCCN2CCc3c(oc4c3C(=O)C(=O)c3ccccc3-4)C2=O)CC1` were 3.69 µM and 3.27 µM.
`COC(=O)[C@H](CO)N1CCc2c(oc3c2C(=O)C(=O)c2ccccc2-3)C1=O`: the values for the IC50 in experiment [1] and in experiment [2] were 1.46 µM and 3.78 µM, respectively.
Take `O=C1C(=O)c2c(oc3c2CCN(CCCO)C3=O)-c2ccccc21`: the IC50 in experiment [1] was 2.23 µM; in experiment [2] it was 1.14 µM.
For `C[C@@H]1CN(CCCN2CCc3c(oc4c3C(=O)C(=O)c3ccccc3-4)C2=O)C[C@H](C)N1`, the IC50 in experiment [1] was 2.49 µM; in experiment [2], more than 4 µM.
The like results for `CCN(CC)CCn1ccc2c3c(oc2c1=O)-c1ccccc1C(=O)C3=O` were, in that order, 1.18 µM and 1.84 µM.
On to `COC(=O)[C@H](Cc1ccc(O)cc1)N1CCc2c(oc3c2C(=O)C(=O)c2ccccc2-3)C1=O`, for which the IC50 worked out at 2.43 µM in experiment [1] and 3.33 µM in experiment [2].
For the molecule `COC(=O)CCCN1CCc2c(oc3c2C(=O)C(=O)c2ccccc2-3)C1=O`, the values for the IC50 in experiment [1] and in experiment [2] were 2.37 µM and 2.51 µM, respectively.
Take `CN(C)CCCN1CCc2c(oc3c2C(=O)C(=O)c2ccccc2-3)C1=O`: the half-inhibitory concentration (IC50) was 1.43 µM in experiment [1] and 0.74 µM in experiment [2].
`CN1CCN(CCCN2CCc3c(oc4c3C(=O)C(=O)c3ccccc3-4)C2=O)CC1`: the IC50 in experiment [1] was 0.77 µM; in experiment [2], 0.75 µM.

Source of the values: ChEMBL document CHEMBL6103591, “Discovery of naphthoquinone-furo-piperidone derivatives as dual targeting agents of STAT3 and NQO1 for the treatment of breast cancer” (Eur J Med Chem, 2025).
